Bounds are passed on as bounds.

This note sets out measurements from ChEMBL document CHEMBL4261492, “Synthesis and in vitro study of novel borneol derivatives as potent inhibitors of the influenza A virus” (Medchemcomm, 2017).

One data set deals with MDCK. Description: (§1) Cytotoxicity against MDCK cells after 48 hrs by MTT assay. In kind it is cell-based, Canis lupus familiaris. The following applies: dog, mdck, 48 h.
A short description of the next data set: in vitro. The following applies: dog, MDCK cells, Ratio CC50/EC50.
Data set [1] deals with Influenza A virus. Description: microbe, parasite or virus in culture. The following applies: A/Puerto Rico/8/1934(H1N1), MDCK.
Data set [2] is described as follows: as §1. It is filed as cell-based, Canis lupus familiaris. The following applies: dog, MDCK cells.
The test system of data set [3] is Influenza A virus. The following applies: mdck.

Broadly, the CC50 is the concentration that lowers cell viability or growth by half. High values mean lower toxicity to the cells, low ones greater toxicity to the cells. As a reminder, the IC50 is the concentration that inhibits the measured activity by half. A lower IC50 goes with greater potency. Take `CCOC(=O)N1CCN(CC(=O)O[C@@H]2C[C@@H]3CC[C@@]2(C)C3(C)C)CC1`: the CC50 in the data set with MDCK is more than 852 µM. Moreover, the selectivity ratio in “in vitro” was 1. This molecule returned a 50% inhibitory concentration (IC50) with Influenza A virus [1] of 683 µM.

For `CCCCN(CCCC)CCC(=O)O[C@@H]1C[C@@H]2CC[C@@]1(C)C2(C)C`, the CC50 in the data set with MDCK stood at 41.8 µM. In addition, the selectivity ratio in the data set “in vitro” was 6. Moreover, in the data set on Influenza A virus [1], inhibition was half-maximal at 7.1 µM (IC50).

Molecule `CC1(C)[C@H]2CC[C@]1(C)[C@H](OC(=O)CN1CCOCC1)C2` had a half-maximal cytotoxic concentration (CC50) with MDCK of 580 µM. The selectivity ratio in the data set “in vitro” is 82. This molecule had a half-maximal inhibitory concentration (IC50) in the data set with Influenza A virus [1] of 7.1 µM.

In turn, `CCN1CCN(CCC(=O)O[C@@H]2C[C@@H]3CC[C@@]2(C)C3(C)C)CC1` came in with a CC50 with MDCK of 105 µM. In addition, the selectivity ratio in the data set “in vitro” amounted to 12. In the data set with Influenza A virus [1], this molecule yielded a concentration for half-maximal inhibition (IC50) of 8.4 µM.

In turn, `CCOC(=O)C1=C[C@@H](OC(CC)CC)[C@H](NC(C)=O)[C@@H](N)C1` [OSELTAMIVIR] had a CC50 in the data set on MDCK of 160 µM.

Molecule `CCN1CCN(CC(=O)O[C@@H]2C[C@@H]3CC[C@@]2(C)C3(C)C)CC1` gave a CC50 at 48 h in data set [2] of 100 µM. In the data set “in vitro”, the selectivity ratio amounted to 23. In the data set with Influenza A virus [1], this molecule displayed an IC50 of 4.4 µM.

With `CCOC(=O)N1CCN(CCC(=O)O[C@@H]2C[C@@H]3CC[C@@]2(C)C3(C)C)CC1`, in the data set on MDCK, half-maximal cytotoxicity (CC50) was put at 150 µM. Also, the selectivity ratio in the data set “in vitro” is 2. Also, the IC50 in the data set on Influenza A virus [1] is more than 98.4 µM.

With `NC12CC3CC(CC(C3)C1)C2` [AMANTADINE], the selectivity ratio in the data set “in vitro” was 4. In the data set on Influenza A virus [1], this molecule yielded an IC50 of 64.2 µM.

In turn, `NC(=O)c1ncn([C@@H]2O[C@H](CO)[C@@H](O)[C@H]2O)n1` [RIBAVIRIN] displayed a cytotoxic concentration (CC50) in the data set with MDCK of more than 2000 µM. Also, the selectivity ratio in “in vitro” is more than 81. This molecule also came in with a concentration for half-maximal inhibition (IC50) in the data set with Influenza A virus [1] of 24.6 µM.

`CC1(C)[C@H]2CC[C@]1(C)[C@@H](O)C2` (stereo in doubt; 1): the 50% cytotoxic concentration (CC50) with MDCK is more than 2140 µM.

`CC1(C)[C@H]2CC[C@]1(C)[C@H](OC(=O)CCN1CCOCC1)C2` displayed a cytotoxic concentration (CC50) in the data set on MDCK of 552 µM. Further, the selectivity ratio in the data set “in vitro” was found to be 45. In the data set on Influenza A virus [1], this molecule came in with an IC50 of 12.2 µM.

Consider `CC(N)C12CC3CC(CC(C3)C1)C2` (configuration not stated) [RIMANTADINE], for which, in the data set “in vitro”, the selectivity ratio turned out to be 5. In the data set with Influenza A virus [1], this molecule returned an IC50 of 67 µM.

For the molecule `CC1(C)[C@H]2CC[C@]1(C)[C@H](OC(=O)CN1CCCC1)C2`, the half-maximal cytotoxic concentration (CC50) in the data set with MDCK is 302 µM. Also, the selectivity ratio in the data set “in vitro” came out at 9. This molecule came in with an IC50 with Influenza A virus [1] of 34 µM.

Molecule `CC1(C)[C@H]2CC[C@]1(C)[C@H](OC(=O)CN1CCNCC1)C2` had a CC50 at 48 h in data set [2] of 51.6 µM. Further, the selectivity ratio in the data set “in vitro” was determined as 16. Also, in the data set with Influenza A virus [1], 3.2 µM corresponded to half-maximal inhibition (IC50).

`CCOC(=O)CN1CCOCC1` had a CC50 in the data set on MDCK of more than 1730 µM. For the same molecule, it took 983 µM to reach half-maximal inhibition in the data set on Influenza A virus [1] (IC50).

Consider `CC1CCN(CC(=O)O[C@@H]2C[C@@H]3CC[C@@]2(C)C3(C)C)CC1`, for which, in the data set with MDCK, the midpoint of cytotoxicity, the CC50, lay at 93.9 µM. The selectivity ratio in the data set “in vitro” amounted to 9. Further, half-maximal inhibition in the data set on Influenza A virus [1] (IC50) was put at 10.2 µM.

In the data set with MDCK, `CC1CCN(CCC(=O)O[C@@H]2C[C@@H]3CC[C@@]2(C)C3(C)C)CC1` registered a half-maximal cytotoxic concentration (CC50) of 56.4 µM. Also, the selectivity ratio in the data set “in vitro” was 4. Moreover, the IC50 in the data set on Influenza A virus [1] was found to be 15.3 µM.

Consider `CC1(C)[C@H]2CC[C@]1(C)[C@@H](OC(=O)CCN1CCOCC1)C2`, for which, in the data set with MDCK, the midpoint of cytotoxicity, the CC50, lay at 508 µM. Besides, the selectivity ratio in “in vitro” worked out at 65. The molecule also returned a concentration for half-maximal inhibition (IC50) in the data set on Influenza A virus [1] of 7.8 µM.

The molecule `CC1(C)[C@H]2CC[C@]1(C)[C@H](OC(=O)CCN1CCCCC1)C2` yielded a CC50 in the data set with MDCK of 69.6 µM. In the data set with Influenza A virus [1], this molecule had a 50% inhibitory concentration (IC50) of 7.8 µM.

In the data set with MDCK, `CC1(C)[C@H]2CC[C@]1(C)[C@@H](O)C2` (stereo in doubt; 22) returned a CC50 of more than 974 µM. In the data set with Influenza A virus [3], this molecule registered a half-maximal inhibitory concentration (IC50) of more than 974 µM.

On to `CC1(C)[C@H]2CC[C@]1(C)[C@@H](OC(=O)CN1CCOCC1)C2`, for which, in the data set with MDCK, the CC50 is more than 534 µM. The IC50 in the data set with Influenza A virus [1] was 73.7 µM.

Molecule `CN1CCN(CCC(=O)O[C@@H]2C[C@@H]3CC[C@@]2(C)C3(C)C)CC1` yielded a half-maximal cytotoxic concentration (CC50) in the data set on MDCK of 48.1 µM. Besides, in “in vitro”, the selectivity ratio is 25. Further, half-maximal inhibition in the data set on Influenza A virus [1] (IC50) required 1.9 µM.

`CC1(C)[C@H]2CC[C@]1(C)[C@H](OC(=O)CCN1CCNCC1)C2` registered a CC50 in the data set with MDCK of 12.6 µM. Further, the selectivity ratio in “in vitro” came out at 2. This molecule also displayed a concentration for half-maximal inhibition (IC50) with Influenza A virus [1] of 6.8 µM.

In the case of `CC1(C)[C@H]2CC[C@]1(C)[C@H](OC(=O)CN1CCCCC1)C2`, the CC50 in the data set on MDCK is 138 µM. The selectivity ratio in “in vitro” worked out at 9. Also, 15.1 µM corresponded to half-maximal inhibition in the data set with Influenza A virus [1] (IC50).

Molecule `COC(=O)CN1CCOCC1` registered a 50% cytotoxic concentration (CC50) in the data set on MDCK of more than 1890 µM. The molecule further returned a concentration for half-maximal inhibition (IC50) with Influenza A virus [1] of more than 1890 µM.

`CN1CCN(CC(=O)O[C@@H]2C[C@@H]3CC[C@@]2(C)C3(C)C)CC1` had a CC50 at 48 h in data set [2] of 103 µM. Besides, the selectivity ratio in “in vitro” was 14. Half-maximal inhibition with Influenza A virus [1] (IC50) was put at 7.1 µM.

Regarding `CC1(C)[C@H]2CC[C@]1(C)[C@H](OC(=O)CCN1CCCC1)C2`, it took 125 µM to reach half-maximal cytotoxicity in the data set on MDCK (CC50). For the same molecule, the selectivity ratio in “in vitro” was determined as 9. Further, in the data set on Influenza A virus [1], it took 14.3 µM to reach half-maximal inhibition (IC50).

In turn, `CCCCN(CCCC)CC(=O)O[C@@H]1C[C@@H]2CC[C@@]1(C)C2(C)C` displayed a CC50 with MDCK of 69.3 µM. Moreover, the IC50 with Influenza A virus [1] is more than 34.1 µM.
